Reference: patent US20060052597A1, “Aryloxyalkylamine derivatives as h3 receptor ligands” (priority 2002, published 2006)
Counter-ions that a name gives are not always drawn. Like-named read-outs stand apart in the source and are kept apart here.

Molecular target: T1, histamine H3 receptor (Homo sapiens, UniProt Q9Y5N1)
T1 construct: expressed in transfected cells; host or cells: CHO K1 cells carrying pSwitch, transfected with pGeneH3 and induced with mifepristone; clone 3H3; membrane preparation
T1 sequence (Q9Y5N1 whole entry): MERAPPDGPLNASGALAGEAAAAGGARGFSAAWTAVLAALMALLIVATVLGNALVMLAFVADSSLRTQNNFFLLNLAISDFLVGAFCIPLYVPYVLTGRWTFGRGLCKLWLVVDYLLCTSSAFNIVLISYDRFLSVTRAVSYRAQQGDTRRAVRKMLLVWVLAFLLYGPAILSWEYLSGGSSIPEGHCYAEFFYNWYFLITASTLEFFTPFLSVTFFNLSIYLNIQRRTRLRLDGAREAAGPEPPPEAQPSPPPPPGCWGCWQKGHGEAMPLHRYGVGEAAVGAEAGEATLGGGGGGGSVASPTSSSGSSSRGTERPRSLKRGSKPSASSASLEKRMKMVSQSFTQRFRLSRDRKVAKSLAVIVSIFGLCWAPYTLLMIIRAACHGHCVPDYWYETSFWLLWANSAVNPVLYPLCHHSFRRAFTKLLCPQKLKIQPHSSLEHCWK
Test: Histamine H3 functional antagonist assay ([35S]GTPγS SPA on membranes)
Type: biochemical
Procedure: A membrane preparation containing histamine H3 receptors may be prepared in accordance with the following procedures:
Ligated DNA was transformed into competent DH5α E. coli host bacterial cells and plated onto Luria Broth (LB) agar containing Zeocin™ (an antibiotic which allows the selection of cells expressing the sh ble gene which is present on pGene and pSwitch) at 50 μg ml^−1. Colonies containing the religated plasmid were identified by restriction analysis. DNA for transfection into mammalian cells was prepared from 250 ml cultures of the host bacterium containing the pGeneH3 plasmid and isolated using a DNA preparation kit (Qiagen Midi-Prep) as per manufacturers guidelines (Qiagen).
CHO K1 cells previously transfected with the pSwitch regulatory plasmid (InVitrogen) were seeded at 2×10e6 cells per T75 flask in Complete Medium, containing Hams F12 (GIBCOBRL, Life Technologies) medium supplemented with 10% v/v dialysed foetal bovine serum, L-glutamine, and hygromycin (100 μg ml^−1), 24 hours prior to use. Plasmid DNA was transfected into the cells using Lipofectamine plus according to the manufacturers guidelines (InVitrogen). 48 hours post transfection cells were placed into complete medium supplemented with 500 μg ml^−1 Zeocin™.
10-14 days post selection 10 nM Mifepristone (InVitrogen), was added to the culture medium to induce the expression of the receptor.
Approximately 1×10e7 cells were examined for receptor expression by staining with a rabbit polyclonal antibody, 4a, raised against the N-terminal domain of the histamine H3 receptor, incubated on ice for 60 minutes, followed by two washes in sorting medium.
Following two further washes with Sorting Medium, cells were filtered through a 50 μm Filcon™ (BD Biosciences) and then analysed on a FACS Vantage SE Flow Cytometer fitted with an Automatic Cell Deposition Unit. […] Positively stained cells were sorted as single cells into 96-well plates, containing Complete Medium containing 500 μg ml^−1 Zeocin™ and allowed to expand before reanalysis for receptor expression via antibody and ligand binding studies.
All steps of the protocol are carried out at 4° C. and with pre-cooled reagents. The cell pellet is resuspended in 10 volumes of buffer A2 containing 50 mM N-2-hydroxyethylpiperazine-N′-2-ethanesulfonic acid (HEPES) (pH 7.40) supplemented with […] leupeptin (acetyl-leucyl-leucyl-arginal; Sigma L2884), 25 μg/ml bacitracin (Sigma B0125), 1 mM ethylenediamine tetra-acetic acid (EDTA), 1 mM phenylmethylsulfonyl fluoride (PMSF) and 2×10e-6M pepstain A (Sigma). The cells are then homogenised by 2×15 second bursts in a 1 litre glass Waring blender, followed by centrifugation at 500 g for 20 minutes. The supernatant is then spun at 48,000 g for 30 minutes. The pellet is resuspended in 4 volumes of buffer A2 by vortexing for 5 seconds, followed by homogenisation in a Dounce homogeniser (10-15 strokes). At this point the preparation is aliquoted into polypropylene tubes and stored at −70° C. […]
The plate is then incubated on a shaker at room temperature for 30 minutes followed by centrifugation for 5 minutes at 1500 rpm. The plate is read between 3 and 6 hours after completion of centrifuge run in a Wallac Microbeta counter on a 1 minute normalised tritium count protocol. Data is analysed using a 4-parameter logistic equation. Basal activity used as minimum i.e. histamine not added to well.

[1] = membranes of CHO K1 clone 3H3 expressing human histamine H3, histamine 0.3 μM, guanosine 5'[γ35-S]thiotriphosphate 0.38 nM, read-out: pKb (converted)

Compound	Kb [1] [nM]	Kb [nM]
O=C(c1ccc(OCCCN2CCCCC2)cc1)N1CCN(C(=O)c2cccs2)CC1 [Example E59, 1-[4-(3-Piperidin-1-ylpropoxy)benzoyl]-4-(thiophen-2-carbonyl)-piperazine Hydrochloride]	< 3.16	
O=C(c1ccc(OCCCN2CCCCC2)cc1)N1CCN(c2ccccc2)CC1 [Example E1, N-[4-(3-Piperidin-1-ylpropoxy)benzoyl]-4-phenylpiperazine dihydrochloride]	< 3.16	
O=C(c1ccc(OCCCN2CCCCC2)cc1)N1CCN(C(=O)C2CCCCC2)CC1 [Example E57, 1-[4-(3-Piperidin-1-ylpropoxy)benzoyl]-4-(1-cyclohexanecarbonyl)-piperazine hydrochloride]	< 3.16	
O=C(c1ccc(OCCCN2CCCCC2)cc1)N1CCN(C(=O)C2CCCCCC2)CC1 [Example E89, 1-[4-(3-Piperidin-1-ylpropoxy)benzoyl]-4-(cycloheptanecarbonyl)-piperazine Hydrochloride]		< 3.16
C[C@@H]1CN(C(=O)c2ccc(OCCCN3CCCCC3)cc2)C[C@H](C)N1C(=O)c1ccccc1 [Example E100]	< 3.16	
O=C(c1ccc(OCCCN2CCCCC2)cc1)N1CCCCC1 [Example E149, N-[4-(3-Piperidin-1-ylpropoxy)benzoyl]piperidine Hydrochloride]	< 3.16	
O=C(c1ccc(OCCCN2CCCCC2)cc1)N1CCN(C(=O)N2CCCC2)CC1 [Example E88, 1-[4-(3-Piperidin-1-ylpropoxy)benzoyl]-4-(pyrrolidine-1-carbonyl)-piperazine Hydrochloride]	< 3.16	

Further lines, with some results ahead:

Kb [1] [nM]	Compound	Kb [nM]
< 3.16	O=C(N[C@H]1CCN(C(=O)c2ccc(OCCCN3CCCCC3)cc2)C1)c1ccccc1 [Example E156, (S)-N-[4-(3-Piperidin-1-ylpropoxy)benzoyl]-3-benzamidopyrrolidine Dihydrochloride]	
< 3.16	O=C1NC2(CCN(C(=O)c3ccc(OCCCN4CCCCC4)cc3)CC2)CN1Cc1ccccc1 [Example E160, 3-Benzyl-8-[4-(3-piperidin-1-ylpropoxy)benzoyl]-1,3,8-triaza-spiro[4.5]-decan-2-one]	
< 3.16	O=C(c1ccc(OCCCN2CCCCC2)cc1)N1CCC2(CC1)CN(c1ccccc1)C(=O)CO2 [Example E159, 4-Phenyl-9-[4-(3-piperidin-1-ylpropoxy)benzoyl]-1-oxa-4,9-diazaspiro-[5,5]-undecan-3-one hydrochloride]	
< 3.16	O=C(c1ccc(OCCCN2CCCCC2)cc1C(F)(F)F)N1CCCCC1 [Example E155, N-[2-Trifluoromethyl-4-(3-Piperidin-1-ylpropoxy)benzoyl]piperidine Hydrochloride]	
< 3.16	O=C(N[C@H]1CCN(C(=O)c2ccc(OCCCN3CCCCC3)cc2)C1)c1cccc2ccccc12 [Example E158, (S)-N-[4-(3-Piperidin-1-ylpropoxy)benzoyl]-3-(naphthalene-1-carboxamidopyrrolidinedihydrochloride]	
